From patent US7074768B2, “Modified protein kinase A-specific oligonucleotides and methods of their use” (Idera Pharmaceuticals, Inc., priority 1995, dated 2006)

Legend:
[1] = tested on: ZR75-1 human breast cancer cells; assay: Soft agar growth of ZR75-1 cells; type: cell-based
Procedure: (§1) Cells (10^4 cells/well) were seeded in 0.5 ml of 0.3% Difco Noble agar (Difco, Detroit, Mich.) supplemented with complete culture medium. This suspension was layered over 0.5 ml of 0.8% agar-medium base layer in 24 multiwell cluster dishes (Becton Dickinson) and treated with various concentrations of docetaxel (day 0). […] Twelve days after the last treatment, cells were stained with nitroblue tetrazolium (Sigma) and colonies larger than 0.05 mm were counted.
as §1
(§2) Soft agar growth. Cells (10^4 cells/well) were seeded in 0.5 ml of 0.3% Difco Noble agar (Difco, Detroit, Mich.) supplemented with complete culture medium. This suspension was layered over 0.5 ml of 0.8% agar-medium base layer in 24 multiwell cluster dishes (Becton Dickinson) and treated with various concentrations of docetaxel (day 0). The HYB 165 was added after 12 hrs (day 1) and on day 3. Twelve days after the last treatment, cells were stained with nitroblue tetrazolium (Sigma) and colonies larger than 0.05 mm were counted.
as §2, with “508” for “165”, “hrs” for “hrs (day 1)”, “2, 3 and 4. After 12” for “3. Twelve”, “days” for “days after”, “the” for “the last treatment,”
Soft agar growth. Cells (10^4 cells/well) were seeded in 0.5 ml of 0.3% Difco Noble agar (Difco, Detroit, Mich.) supplemented with complete culture medium. […] After 12 days the cells were stained with nitroblue tetrazolium (Sigma) and colonies larger than 0.05 mm were counted.
as §2, with “of” for “of docetaxel (day 0). The”, “or HYB295 every 48 hours for three times. After” for “was added after”, “12” for “12 hrs (day 1) and on day 3. Twelve”, “days” for “days after”, “the” for “the last treatment,”, “(Sigma, St. Louis, Mo.)” for “(Sigma)”
as §2, with “of” for “of docetaxel (day 0). The”, “or HYB508 every 48 hours for three times. After” for “was added after”, “12” for “12 hrs (day 1) and on day 3. Twelve”, “days” for “days after”, “the” for “the last treatment,”, “(Sigma, St. Louis, Mo.)” for “(Sigma)”

[2] = tested on: GEO human colon cancer cells; assay: Soft agar growth of GEO cells; type: cell-based
Procedure: as §2, with “Cells” for “Soft agar growth. Cells”, “paclitaxel” for “docetaxel”, “2, 3 and 4. 12” for “3. Twelve”

[3] = tested on: GEO colon cancer xenografts; assay: GEO colon cancer xenografts in nude mice (tumor growth, survival); type: in vivo; conditions: single agent
Procedure: We investigated the antitumor activity of HYB 165 (AS RIα) in nude mice bearing GEO colon cancer xenografts, using either the intraperitoneal (i.p.) or the oral route of administration. When established GEO tumors of approximately […] were detectable, groups of 10 mice were treated i.p. with either HYB 165 or a control modified backbone oligonucleotide with a scrambled sequence, at 5 or 10 mg/kg/dose, daily on days 7 to 11 and 14 to 18. […] The control oligonucleotide produced no inhibition at 10 mg/kg/dose.
Following oral administration, modified backbone oligonucleotides (MBOs) are absorbed in the upper and lower part of the GI tract and distributed to major organs (S. Agrawal and R. Zhang, In: Antisense Research and Application, S. T. Crooke, ed.), Handbook of Experimental Pharmacology, Springer, Berlin, p. 525–543 (1998). Therefore, HYB 165 and the control oligonucleotide were administered to GEO tumor-bearing mice as described above, except that HYB 165 and the control oligonucleotide were administered orally.
On day 7 after tumor cell injection, one group of 10 mice was treated with taxol (20 mg/kg/dose, i.p.), and the treatment was repeated every 2 weeks (on day 21 and day 35) for a total of three cycles. Two other groups of mice were treated with either HYB 165 (AS RIα) or a control MBO with a scrambled sequence (10 mg/kg/dose, p.o.), daily for five days (days 8–12). Treatment was repeated every 2 weeks (days 22–26 and days 36–40) for a total of three cycles. Two more groups of mice were treated with taxol and either HYB 165 or the control MBO, administering the taxol (20 mg/kg/dose, i.p.) on day 7, followed by oral administration of either HYB 165 or the control MBO daily for five days (days 8–12). The sequential treatment was repeated with the same schedule every 2 weeks for a total of three cycles.

[4] = tested on: TGFα; assay: Histochemical analysis of GEO tumors: TGFα; type: in vivo; conditions: single agent, after two cycles
From the text: (§3) Tumor specimens from the different groups of mice were examined by histochemical analysis at different time points to evaluate the expression of a variety of biological parameters.
(§4) TGFα and AR are growth factors which bind to EGFR and control human colon cancer growth through autocrine and paracrine mechanisms (F. Ciardiello and G. Tortora, Clin. Cancer Res. 4:821–828 (1998); D. S. Salomon, Crit. Rev. Oncol. Hematol. 19:183–232 (1995)).

[5] = tested on: AR; assay: Histochemical analysis of GEO tumors: AR; type: in vivo; conditions: single agent, after two cycles
From the text: as §3, §4

[6] = tested on: p27; assay: Histochemical analysis of GEO tumors: p27; type: in vivo; conditions: single agent
From the text: Tumor specimens from the different groups of mice were examined by histochemical analysis at different time points to evaluate the expression of a variety of biological parameters. […] No other treatment was able to affect RIα expression.
Loda et al. (Nature Medicine 3:231–234 (1997)) discloses that the cyclin-dependent kinase (CDK) inhibitor p27 is […] related to cell entry into S phase and proliferation and that reduction of its expression correlates with poor prognosis in colon cancer patients.

[7] = tested on: Factor VIII related antigen; assay: Tumor-induced neovascularization (anti-Factor VIII related antigen immunohistochemistry); type: in vivo; conditions: single agent, vs untreated mice or scramble MBO
From the text: In recent years, the critical role of tumor-induced neovascularization in neoplastic development, progression and metastasis has been elucidated (J. I. Fokman, In: J. Mendelsohn et al., eds., The Molecular Basis of Cancer, pp 206–232, Philadelphia: W B Saunders (1995) . A reliable histologic estimate of novel blood vessels on tumor specimens is the microvessel count (MVC) in the most intense areas of neovascularization. In the present study, tumor-induced neovascularization was quantified by immunohistochemistry using an anti-Factor VIII related antigen monoclonal antibody (N. Weidner, Breast Cancer Res. Treat., 36:169–180 (1995)).

[8] = tested on: LS-174T human colon carcinoma cells; assay: LS-174T tumor growth and antisense treatment; type: in vivo, athymic mice; conditions: single s.c. dose 1 mg per mouse, FIG. 1
Procedure: LS-174T human colon carcinoma cells (1×10^6 cells) were inoculated subcutaneously (s.c.) into the left flank of athymic mice. A single dose of RIα antisense hybrid (Oligo 165, SEQ ID NO:4), inverted hybrid (Oligo 166, SEQ ID NO:6), or antisense (Oligo 164, SEQ ID NO:1) oligonucleotides or control oligonucleotide (Oligo 169, SEQ ID NO:7); Oligo 168 (SEQ ID NO:5); Oligo 188, (SEQ ID NO:3) as shown in Table 1 (1 mg per 0.1 ml saline per mouse), or saline (0.1 ml per mouse), was injected s.c. into the right flank of mice when tumor size reached 80 to 100 mg, about 1 week after cell inoculation. Tumor volumes were obtained from daily measurement of the longest and shortest diameters and calculation by the formula, 4/3πr^3 where r=(length+width)/4. At each indicated time, two animals from the control and antisense-treated groups were killed, and tumors were removed and weighed.

For `CC(=O)O[C@@]12CO[C@@H]1C[C@H](O)[C@@]1(C)C(=O)[C@H](O)C3=C(C)[C@@H](OC(=O)[C@H](O)[C@@H](NC(=O)OC(C)(C)C)c4ccccc4)C[C@@](O)([C@@H](OC(=O)c4ccccc4)[C@H]21)C3(C)C` [docetaxel, reference compound], the inhibition at 10 pM ([1]; Homo sapiens, ZR-75-1, docetaxel 0.01 nM alone (Examples 13, 14)) was < 12%, the inhibition at 10 pM ([1]; Homo sapiens, ZR-75-1, docetaxel 0.01 nM alone (Examples 21, 22)) was < 15% and the inhibition at 30 pM ([1]; Homo sapiens, ZR-75-1, docetaxel 0.03 nM alone (Examples 21, 22)) was ~40%. For the same compound, the inhibition at 0.0001 µM ([1]; Homo sapiens, ZR-75-1, docetaxel 0.1 nM alone (Examples 21, 22)) was ~72%, the inhibition at 0.0003 µM ([1]; Homo sapiens, ZR-75-1, docetaxel 0.3 nM alone (Examples 21, 22)) was ~85% and the growth inhibition ([1]; docetaxel alone, doses ranging between 0.01 and 0.3 nM, maximum) was “up to 80%”.

For `CC(=O)O[C@H]1C(=O)[C@@]2(C)[C@H]([C@H](OC(=O)c3ccccc3)[C@]3(O)C[C@H](OC(=O)[C@H](O)[C@@H](NC(=O)c4ccccc4)c4ccccc4)C(C)=C1C3(C)C)[C@]1(OC(C)=O)CO[C@@H]1C[C@@H]2O` [paclitaxel, reference compound], the inhibition at 0.001 µM ([2]; Homo sapiens, paclitaxel 1 nM alone) was < 5%, the inhibition at 0.005 µM ([2]; Homo sapiens, paclitaxel 5 nM alone) was ~20% and the inhibition at 0.01 µM ([2]; Homo sapiens, paclitaxel 10 nM alone) was ~58%. The growth inhibition ([2]; paclitaxel alone, doses ranging between 0.1 and 10 nM, maximum) was “up to 60%”, the tumor growth ([3]; three cycles (taxol 20 mg/kg/dose i.p.; MBO 10 mg/kg/dose p.o.), FIG. 17A) was “inhibited tumor growth” and the survival time ([3]; three cycles, FIG. 17B) was “slight increase in survival time”. For the same compound, the “expression of TGFα” value [4] was “Unlike taxol, treatment with HYB 165 inhibited the expression of TGF α and AR”, the “expression of AR” value [5] was “Unlike taxol, treatment with HYB 165 inhibited the expression of TGF α and AR” and the p27 expression [6] was “Unlike taxol, HYB 165 alone is able to increase p27 expression”. The “inhibition of staining (microvessel count)” value [7] was “over 60%”.

For “Oligo 166: Inverted hybrid antisense 18-mer GCG TGC CUC CUC ACT GGC, SEQ ID NO:6 (antisense GCGTGCCUCCUCACTGGC; inverted hybrid: 2'-O-methyl ribonucleotide middle segment, DNA flanks, exact positions not given here)”, the “size of the tumor” value [8] was “smaller from three days after injection onward than the phosphorothioate oligonucleotide 164”.

In the case of “Oligo 168: Mismatched hybrid control GCG CGC CTC CTC GCU GGC, SEQ ID NO:5 (GCGCGCCTCCTCGCUGGC; hybrid: 2'-O-methyl ribonucleotide ends, DNA middle, exact positions not given here) [reference compound]”, the “size of the tumor” value [8] is reported as “little ability to keep tumor size at a minimum relative to the hybrid and inverted hybrid oligonucleotides”.
